# Entries after “also recorded” stand apart in the source; their conditions may differ.
# Legend:
# Assay type in all cases: in vivo
# Conditions in all cases: aged male mice (21-24 months), daily subcutaneous BAPN for 4 weeks, vs saline
# [1] = test system: medial tibial cartilage of aged male C57/BL6 mice; test: BAPN daily injection in aged mice, cartilage histology (OARSI score)
# Procedure: (§1) Aged male C57/BL6 mice (21-24 months; body mass) received daily subcutaneous injections of either saline, as a control, or BAPN (290 μg/μ1 in saline) for 4 weeks every day. Volume of the injection (40-80 μl) was determined based on mice body mass (m) with following protocol: 40 μl (18.45 g≤m≤23.73 g), 50 μl (23.73 g≤m≤29.00 g), 60 ul (29.00 g≤m≤34.27 g), 70 μl (34.27 g≤m≤39.55 g), 80 μl (39.55 g≤m≤44.82 g). Mice were weighed every other day beginning on day 0 and ending on day 28 to ensure proper dosage of BAPN.
# Mice knee joints and human cartilage samples were fixed in 4% paraformaldehyde overnight at 4° C., and decalcified in 20% ethylene diamine tetra acetic acid solution for 10 days. Decalcified paraffin sections (5 μm thickness) were prepared from central region of the mice knee joints in the frontal plane in accordance with the OARSI recommendation (Glasson, et al., Osteoarthritis Cartilage 18 Suppl 3, S17-23 (2010)). Decalcified paraffin sections from human cartilage specimen were also prepared. […] The OARSI scoring system, consisting of six grades and four stages on a scale from 0 (normal) to 24 (severe cartilage lesion), was used for semi-quantitative evaluation of cartilage lesion severity (Pritzker, et al., Osteoarthritis Cartilage 14, 13-29 (2006)). The most severe score was evaluated as the maximum OARSI score. […]
# α-Klotho = test: BAPN daily injection in aged mice, α-Klotho immunofluorescence in chondrocytes
# Procedure: as §1
# Immunofluorescence analysis for tissue section and/or cell-seeded pAAm gel was performed to determine the signal intensity of type II collagen, α-Klotho, Lamin A/C, and Lamin B2 in accordance with established protocol (Sahu, et al., 2018, supra). Briefly, after a triple wash by PBS, cells were permeabilized with 0.1% triton-X (Fluka 93420) for 15 minutes, followed by a one-hour blocking step using 0.1% triton-X with 3% Bovine Serum Albumin (BSA, Sigma A7906) in PBS. The cells were then incubated with primary antibodies for overnight at 4° C. A similar process was followed for the decalcified tissue paraffin. […]
# Slides were imaged using a Zeiss Observer Z1 semi-confocal microscope. […] All images for quantitative analysis in a given experiment were taken under the same imaging conditions. Fluorescence intensity was quantified using Image J
# [2] = test system: chondrocyte nuclear morphology; test: BAPN daily injection in aged mice, chondrocyte nuclear morphology (CellProfiler, PCA)
# Procedure: as §1
# DAPI and F-actin images were obtained at 63× and 20× magnification using a Zeiss Observer Z1 semi-confocal microscope, respectively. Afterwards, image processing and morphome feature extraction were performed using CellProfiler software (v4.0, The Broad Institute) (Carpenter et al., Genome Biol 7, R100 (2006)). Fifty-three shape features of cell and nuclei were determined using the “identify primary objects” followed by the “measure object size shape” and “export to spread sheet” module. Principal Component Analysis (PCA) was performed for the data reduction identifying the principal components (PCs) that represent the differences in the cellular and nuclear morphology. To determine variables of cellular and nuclear shape contributing to PCs, loading matrix, a correlation between the original variable and PCs, were extracted.
smiles,measurement,setting,value
"N#CCCN [BAPN, β-aminopropionitrile]",cartilage integrity (OARSI score),[1],improves cartilage integrity
same,α-Klotho expression in chondrocytes,α-Klotho,significantly increased α-Klotho levels; also recorded: increased α-Klotho expression; also recorded: improves α-Klotho expression
same,nuclear eccentricity of chondrocytes,[2],decreased nuclear eccentricity; also recorded: decreases nuclear eccentricity towards young level

# Source: patent publication US20210330760A1, “METHODS AND MATERIALS FOR TREATING OSTEOARTHRITIS” (University of Pittsburgh - Of the Commonwealth System of …, priority 2020, published 2021)
